According to patent publication US8222285B2, “1,3-dihydroxy substituted phenylamide glucokinase activators” (Bristol-Myers Squibb Company, priority 2007, dated 2012):

System: male DIO (diet-induced obese) C57BL/6J mice
Test: Oral glucose tolerance test (OGTT) in DIO mice
Format: in vivo
Conditions: 30 mg/kg oral, 60 min before 2 g/kg oral glucose; ΔAUC 0-120 min; DIO C57BL/6J mice
Description: In Vivo Studies: Oral Glucose Tolerance Test (OGTT)
Oral glucose tolerance tests were carried out on male DIO (diet-induced obese) C57BL/6J mice fed a high fat diet (60% kcal from fat) for 26 weeks prior to experimentation. Mice were fasted overnight before use for experiments. A test compound or vehicle (10% dimethyl acetamide+10% ethanol+10% Cremophore+70% water) was given orally 60 min before oral administration of a glucose solution at a dose of 2 g/kg body weight (oral glucose tolerance test; OGTT). Blood glucose levels were measured from tail-bled samples taken at different time points before and after administration of glucose (time course of 2 hours). A time curve of the blood glucose was generated and the change from baseline area-under-the curve (ΔAUC) from 0-120 min was calculated (the time glucose administration being time zero).

Compound | Reduction in Glucose AUC at 30 mg/kg dose [%]
COC[C@H](C)Oc1cc(Oc2ccc(S(C)(=O)=O)cc2)cc(C(=O)Nc2ncc(Oc3cccc(C(=O)O)c3)s2)c1 [Example 4] | 37

Molecular target: T1, human glucokinase (GK) (Homo sapiens, UniProt P35557)
T1 construct: Full-length human hepatic GK (untagged) was expressed in BL21 STAR (DE3)pLysS cells; made in house; host or cells: E. coli BL21 STAR (DE3)pLysS
T1 sequence (P35557 1-466 isoform P35557-2): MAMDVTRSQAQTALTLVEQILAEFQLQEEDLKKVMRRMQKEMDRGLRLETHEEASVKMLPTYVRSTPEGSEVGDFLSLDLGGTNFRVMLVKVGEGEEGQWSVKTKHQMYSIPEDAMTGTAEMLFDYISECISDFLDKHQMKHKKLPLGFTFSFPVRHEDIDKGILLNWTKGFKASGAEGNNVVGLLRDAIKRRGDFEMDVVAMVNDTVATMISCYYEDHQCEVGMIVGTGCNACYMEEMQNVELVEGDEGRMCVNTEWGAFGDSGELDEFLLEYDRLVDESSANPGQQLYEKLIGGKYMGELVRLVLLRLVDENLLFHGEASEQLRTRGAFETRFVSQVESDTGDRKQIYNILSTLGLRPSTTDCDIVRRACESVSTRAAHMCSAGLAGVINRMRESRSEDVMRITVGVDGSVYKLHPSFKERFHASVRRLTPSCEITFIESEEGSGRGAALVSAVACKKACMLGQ
Test: Glucokinase tandem enzymatic assay
Format: biochemical
Conditions: 12 mM glucose; expressed as % of basal activation; EC50 could not be calculated; read-out: Maximal activation (%) Human Glucokinase @ 12 mM Glucose
Description: Glucokinase Tandem Enzymatic Assay
Enzymatic activity of human glucokinase (GK) was measured by incubating GK, ATP, and glucose for discrete time periods followed by quenching with EDTA (ethylenediamine tetra-acetic acid). Relative amounts of product glucose-6-phosphate (G6P) were measured by then running a detection assay using G6P dehydrogenase and measuring the conversion of ThioNAD (thio-nicotinamide adenine dinucleotide) to ThioNADH (thio-dihydronicotinamide adenine dinucleotide) at a wavelength of 405 nm. This ‘uncoupled’ enzymatic reaction is denoted as the GK ‘tandem’ assay. Activation of GK by compounds can be assessed using this assay. The GK tandem assay protocol described below was followed using a range of activator compound concentrations from 0 to 100 μM at 5 and 12 mM of glucose. Human full-length glucokinase (GK, 15 nM) was incubated with 5 or 12 mM glucose in a 384 well black microtiter plate with a clear bottom. To initiate the GK reaction, magnesium-ATP (3 mM final concentration) was added to GK in buffer (final buffer conditions of 25 mM HEPES buffer, pH 7.1, containing 1 mM dithiothreitol and 5% DMSO). The total reaction volume was 20 μL. The reaction was allowed to proceed for ten minutes and was then quenched with 5 μL EDTA; 45 mM final). The components of the detection reaction, ThioNAD and G6PDH (glucose-6-phosphate dehydrogenase) (final concentrations of 650 μM and 3.33 Units, respectively), were then added together in a volume of 25 μL, (to give a total volume of 50 μL). Absorbance measurements were made at 405 nm on a Spectramax Plus 384 absorbance plate reader (Molecular Devices). Absorbance was read, background glucose-6-phosphate levels were subtracted, after which activation was calculated as a percentage of control activity. Control activity was determined using GK in the presence of vehicle (DMSO), with background glucose-6-phosphate subtracted. Background glucose-6-phosphate was determined by pre-quenching GK with EDTA prior to reaction initiation with ATP.
Expression and Purification of Human GK
Full-length human hepatic GK (untagged) was expressed in BL21 STAR (DE3)pLysS cells (Invitrogen) at 25° C. as described by Mookhtiar et al. (1). The protein was purified essentially as described by Lange (2) with a slight modification. Briefly, cell pellets were lysed via three rounds of freezing and thawing, centrifuged at 15000 g for clarification, and precipitated with 40-65% (NH4)2SO4. The resulting pellet was resuspended in buffer, dialyzed, and applied directly to a Q-Sepharose (Sigma) column followed by elution with a linear 100-600 mM KCl gradient. GK containing fractions were pooled, dialyzed overnight vs. 25 mM Hepes pH 7.2/1 mM MgCl2/1 mM EDTA/0.1 M KCl/1 mM DTT, then dialyzed again with same buffer with 10% glycerol added.

Compound | Emax [%]
COC[C@H](C)Oc1cc(O[C@@H](C)Cc2ccccc2)cc(C(=O)Nc2ncc(Oc3cccc(C(=O)O)c3)s2)c1 [Example 32] | 118
CC(C)Oc1cc(Oc2ccc(C(=O)N3CCC3)nc2)cc(C(=O)Nc2ncc(Oc3cccc(C(=O)O)c3)s2)c1 [Example 46] | 124

Same assay, conditions: 12 mM glucose; full-length human GK 15 nM

Compound | EC50 [nM]
COC[C@H](C)Oc1cc(Oc2ccc(S(C)(=O)=O)cc2)cc(C(=O)Nc2ncc(Oc3cccc(C(N)=O)c3)s2)c1 [Example 3] | 13
COC[C@H](C)Oc1cc(Oc2ccc(S(C)(=O)=O)cc2)cc(C(=O)Nc2ncc(Oc3cccc(C(=O)O)c3)s2)c1 [Example 4] | 47
CC(C)Oc1cc(OC(C)C)cc(C(=O)Nc2ncc(Oc3cccc(C(=O)O)c3)s2)c1 [Example 11] | 171
CC(C)Oc1cc(OC(C)C)cc(C(=O)Nc2ncc(Oc3ccc(F)nc3)s2)c1 [Example 17] | 179
COC[C@H](C)Oc1cc(Oc2ccc(S(C)(=O)=O)cc2)cc(C(=O)Nc2ncc(Oc3cccc(C(=O)N4CCC4)c3)s2)c1 [Example 33] | 6
COC[C@H](C)Oc1cc(Oc2ccc(S(C)(=O)=O)cc2)cc(C(=O)Nc2ncc(Oc3cccc(C(=O)N4CC(O)C4)c3)s2)c1 [Example 34] | 16
CS(=O)(=O)c1ccc(Oc2cc(Oc3ccnc(Cl)c3)cc(C(=O)Nc3ncc(Oc4cccc(C(=O)O)c4)s3)c2)cc1 [Example 42] | 170
CC(C)Oc1cc(Oc2ccc(S(C)(=O)=O)nc2)cc(C(=O)Nc2ncc(Oc3cccc(C(=O)O)c3)s2)c1 [Example 45] | 34

Same assay, conditions: read-out: Maximal activation (%) Human Glucokinase @ 12 mM Glucose

Compound | Emax [%]
CNC(=O)Oc1cccc(Oc2cnc(NC(=O)c3cc(Oc4ccc(S(C)(=O)=O)cc4)cc(O[C@@H](C)COC)c3)s2)c1 [Example 38] | 144
